Laboratory results taken from US20080021105A1, “Medicine Capable of Inhibiting Activation of Transcription Factor Klf5” (THE UNIVERSITY OF TOKYO, priority 2004, published 2008).
One block for each compound: values may come before it.

How the values were obtained:
KLF5 = settings: reporter assay using cells; Nature Medicine, 8, pp.856-863, 2002; cited from earlier work
[1] = tested on: neointimal formation in injured blood vessels; settings: administered to wild type mice; Nature Medicine, 8, pp.856-863, 2002; cited from earlier work
3T3-KLF5 cells = assay: Growth of cells with stable KLF5 (living cell count); format: cell-based; settings: for living cell count: 10^−8 to 10^−5 M, 24 hours, serum-free, FIG. 5
Method: (§1) “3T3-KLF5 cells”, cells in which KLF5 was stably expressed (obtained by subcloning cDNA of KLF5 in a 3×FLAG expression vector to prepare a construct of 3×FLAG-KLF5, then transfecting 3T3 cells with the construct, and culturing the transfectants in the presence of G418 for 2 weeks to clone G418 resistant cells, control cells not containing KLF5 which were prepared in the same manner are referred to as 3T3-mock cells), were seeded in DMEM medium containing 10% FBS and penicillin G/streptomycin at a rate of 1×10^5 cells/well (6-well plate) and cultured overnight at 37° C. in a 5% CO2 incubator, and then the medium was changed to DMEM medium containing penicillin G/streptomycin (serum-free). The cells were added with NIK-333 dissolved in DMSO after 2 hours, cultured for 24 hours, and then counted.

3T3-mock cells = assay: Growth of control cells not containing KLF5 (living cell count); format: cell-based; settings: for living cell count: 10^−8 to 10^−5 M, 24 hours, serum-free, FIG. 5
Method: as §1

[2] = tested on: vascular intimal hyperplasia resulted from vascular injury due to the cuff; assay: Mouse cuff-induced injury model, Example 3-2 (EVG staining); format: in vivo, C57BL6/N mice; settings: for I/M ratio (mean ± S.D.): EVG staining, 5 weeks after cuff; for ratio of I/M (intima/media) compared with the control group: Example 3-2
Method: Vascular remodeling analysis was performed by using a cuff-induced injury model. Usefulness of this model in relation to vascular remodeling has been reported (Physiol. Genomics, 2, pp.13-30, 2000; Circulation, 104, pp.2716-2721; Circulation, 106, pp.847-853, 2002). For this experiment, 8-week old male C57BL6/N mice (10 animals/group) were used. In an amount of 100 or 200 mg/kg of NIK-333 or 5 or 10 mg/kg of ATRA suspended in soybean oil was orally given once daily every day from 7 days before placement of a cuff (placement of polyethylene tube around blood vessel) to the day before sacrifice. The control group were received soybean oil alone in the same manner. After the 7-day pretreatment, the right femoral artery was covered with PE50 (polyethylene tube 50, outer diameter: 0.965 mm, length: about 1.5 mm) as a cuff. The animals were sacrificed after 5 weeks. Blood was collected, and the cuff was removed under perfusion fixation via puncture of the left ventricle. For pathological evaluation, Elastica van Gieson (EVG) staining was performed. As a result, the ratio of I/M (intima/media) in vascular intimal hyperplasia resulted from vascular injury due to the cuff decreased in the NIK-333 treatment groups compared with the control group.

[3] = biological target: T1, transcription factor KLF5 (PDGF-A promoter activation under overexpression of RARβ) (Homo sapiens, UniProt Q13887); assay: Luciferase assay of KLF5-dependent PDGF-A promoter activation, COS1 cells cotransfected with KLF5 and RARβ; format: cell-based; settings: Example 1-2, FIG. 3
T1 construct: expressed in transfected cells; host or cells: COS1 cells
T1 sequence (Q13887 whole entry): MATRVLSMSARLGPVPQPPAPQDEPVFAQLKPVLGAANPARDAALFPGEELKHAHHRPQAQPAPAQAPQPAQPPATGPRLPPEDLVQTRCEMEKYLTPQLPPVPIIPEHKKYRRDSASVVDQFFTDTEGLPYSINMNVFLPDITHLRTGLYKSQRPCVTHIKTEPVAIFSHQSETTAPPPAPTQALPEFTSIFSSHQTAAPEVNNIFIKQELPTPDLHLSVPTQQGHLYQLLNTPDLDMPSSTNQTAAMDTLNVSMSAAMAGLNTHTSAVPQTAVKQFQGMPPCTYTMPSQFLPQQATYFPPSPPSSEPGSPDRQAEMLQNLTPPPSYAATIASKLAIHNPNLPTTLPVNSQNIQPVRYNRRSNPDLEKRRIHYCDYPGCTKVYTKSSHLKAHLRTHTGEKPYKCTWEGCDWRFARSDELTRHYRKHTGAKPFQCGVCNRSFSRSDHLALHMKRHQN
Method: (§2) COS1 cells were seeded on a 24-well plate at a rate of 5×10^4 cells/well and cultured overnight at 37° C. in a 5% CO2 incubator. Transfection was performed by using TransFast (registered trade name, Promega) transfection reagent according to the protocol attached to the reagent. Specifically, the cells were added with pCAG/KLF5 or empty vector thereof (pCAG), pRSh/RARα, pRSh/RARβ, pRSh/RARγ or empty vector thereof (pRS-RSV) and PDGF-A promoter (−900)-Luciferase and cultured at 37° C. in a 5% CO2 incubator for 48 hours. NIK-333 was dissolved in dimethyl sulfoxide (DMSO); and added at 10^−12 to 10^−5 M. Then, a luciferase assay was performed by using Dual Luciferase Reporter Assay System (Promega). […] This KLF5-dependent PDGF-A promoter activation under overexpression of RARα was inhibited by NIK-333 (Lanes 5 to 12). […] On the other hand, it was noted that the KLF5-dependent PDGF-A promoter activation action under overexpression of RARβ was not affected by NIK-333.

[4] = biological target: T2, transcription factor KLF5 (PDGF-A promoter activation under overexpression of RARα) (Homo sapiens, UniProt Q13887); assay: Luciferase assay of KLF5-dependent PDGF-A promoter activation, COS1 cells cotransfected with KLF5 and RARα; format: cell-based
T2 construct: expressed in transfected cells; host or cells: COS1 cells
T2 sequence (P10276 whole entry partner): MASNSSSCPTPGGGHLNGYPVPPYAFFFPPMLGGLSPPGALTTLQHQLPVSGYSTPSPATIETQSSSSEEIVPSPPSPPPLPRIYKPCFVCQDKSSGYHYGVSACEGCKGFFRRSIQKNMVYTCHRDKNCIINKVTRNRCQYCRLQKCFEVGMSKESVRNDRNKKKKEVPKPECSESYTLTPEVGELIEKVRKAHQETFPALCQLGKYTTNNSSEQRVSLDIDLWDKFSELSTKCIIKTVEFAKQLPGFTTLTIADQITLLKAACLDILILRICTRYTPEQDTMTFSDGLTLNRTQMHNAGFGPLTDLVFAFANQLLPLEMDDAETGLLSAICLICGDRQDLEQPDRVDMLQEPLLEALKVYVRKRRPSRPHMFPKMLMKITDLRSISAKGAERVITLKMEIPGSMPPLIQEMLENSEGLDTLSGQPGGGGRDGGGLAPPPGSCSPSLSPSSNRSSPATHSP
T2 sequence (Q13887 whole entry): as the sequence (Q13887 whole entry) above
Method: COS1 cells were seeded on a 24-well plate at a ratio of 5×10^4 cells/well and cultured at 37° C. in a 5% CO2 incubator for 12 hours. Transfection was performed by using TransFast (registered trade name, Promega) transfection reagent according to the protocol attached to the reagent. Specifically, the cells were added with pCAG/KLF5 or empty vector thereof (pCAG), pCMX/RARα or empty vector thereof (pCMX) and PDGF-A promoter (−900)-Luciferase and cultured at 37° C. in a 5% CO2 incubator for 48 hours. NIK-333 was dissolved in dimethyl sulfoxide (DMSO), and added at 10^−7 to 10^−5 M. Then, a luciferase assay was performed by using Dual Luciferase Reporter Assay System (Promega). In contrast to the transfection of the empty vector for KLF5 and the empty vector for RARα (Lane 1), the transfection of the KLF5 gene alone (Lane 2) and transfection of the RARα gene alone (Lane 3), the transfection of the KLF5 and RARα genes (Lane 4) activated the PDGF-A promoter. This KLF5-dependent PDGF-A promoter activation action under overexpression of RARα was inhibited by NIK-333 (Lanes 5 to 7).
as §2

hepatoma recurrence = settings: clinical; long-term administration over one year; N. Eng. J. Med., 334, pp.1561-1567, 1996; cited from earlier work
[5] = clinical; N. Eng. J. Med., 334, pp.1561-1567, 1996; cited from earlier work
[6] = tested on: vascular intimal hyperplasia resulted from vascular injury due to the cuff; assay: Mouse cuff-induced injury model, Example 3-1 (HE staining); format: in vivo, C57BL6/N mice; settings: for I/M ratio: HE staining, 5 weeks after cuff
Method: Vascular remodeling analysis was performed by using a cuff-induced injury model. Usefulness of this model in relation to vascular remodeling has been reported (Physiol. Genomics, 2, pp.13-30, 2000; Circulation, 104, pp.2716-2721, 2001; Circulation, 106, pp.847-853, 2002). For this experiment, 8-week old male C57BL6/N mice (10 animals/group) were used. In an amount of 50 mg/kg of NIK-333 dissolved in soybean oil was orally given once a day and every day from 7 days before placement of a cuff (placement of polyethylene tube around blood vessel) to the day before sacrifice. The control group received soybean oil alone in the same manner. After the 7-day pretreatment, the right femoral artery was covered with PE50 (polyethylene tube 50) as a cuff. The animals were sacrificed after 5 weeks. Blood was collected, and the cuff was removed under perfusion fixation via puncture of the left ventricle. For pathological evaluation, hematoxylin/eosin (HE) staining was performed. As a result, the ratio of I/M (intima/media) in vascular intimal hyperplasia resulted from vascular injury due to the cuff decreased in the NIK-333 treatment group compared with the control group.

[7] = tested on: Fibroblast-derived 3T3 cells; assay: Cell growth of fibroblast 3T3 (living cell count); format: cell-based
Method: Fibroblast-derived 3T3 cells were seeded on a 24-well plate at a rate of 1×10^6 cells/well and left for 12 hours. Then, NIK-333 and ATRA were added at 10^−7 to 10^−4 M, and living cells were counted 24, 36 and 48 hours later. NIK-333 and ATRA were dissolved in DMSO.

[8] = Influence on mouse testes weight and body weight; format: in vivo, C57BL6/N mice
Method: Eight-week old male C57BL6/N mice (10 animals/group) were used. In an amount of 50 mg/kg or 100 mg/kg of NIK-333 dissolved in soybean oil was orally given once daily every day for 5 weeks. The control group received soybean oil alone in the same manner. Body weights were measured after 5 weeks. The animals were sacrificed, then the testes were observed by visual observation, and the testes weights were measured.

[9] = biological target: T3, transcription factor KLF5 (PDGF-A promoter activation under overexpression of RARγ) (Homo sapiens, UniProt Q13887); assay: Luciferase assay of KLF5-dependent PDGF-A promoter activation, COS1 cells cotransfected with KLF5 and RARγ; format: cell-based; settings: Example 1-2
T3 construct: expressed in transfected cells; host or cells: COS1 cells
T3 sequence (P13631 whole entry partner): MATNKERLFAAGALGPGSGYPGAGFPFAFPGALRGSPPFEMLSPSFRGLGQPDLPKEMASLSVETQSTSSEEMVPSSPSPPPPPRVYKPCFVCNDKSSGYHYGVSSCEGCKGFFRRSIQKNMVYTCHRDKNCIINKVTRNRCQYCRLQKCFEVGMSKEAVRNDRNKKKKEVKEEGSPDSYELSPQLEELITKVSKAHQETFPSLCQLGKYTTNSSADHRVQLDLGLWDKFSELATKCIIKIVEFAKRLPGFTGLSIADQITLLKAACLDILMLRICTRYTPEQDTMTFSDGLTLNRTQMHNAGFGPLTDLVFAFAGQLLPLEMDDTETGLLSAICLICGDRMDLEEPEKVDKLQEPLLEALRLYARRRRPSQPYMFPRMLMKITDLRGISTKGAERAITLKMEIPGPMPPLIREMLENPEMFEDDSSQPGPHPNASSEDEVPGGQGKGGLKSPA
T3 sequence (Q13887 whole entry): as the sequence (Q13887 whole entry) above
Method: as §2

[10] = 50 mg/kg orally once daily for 5 weeks
[11] = 100 mg/kg orally once daily for 5 weeks

Structure (SMILES): CC1(C)CCC(C)(C)c2cc(NC(=O)c3ccc(C(=O)O)cc3)ccc21 [Am80]
transcription of PDGF-A induced by KLF5 (KLF5): inhibited | neointimal formation in injured blood vessels [1]: inhibited

Structure (SMILES): CC1=C(/C=C/C(C)=C/C=C/C(C)=C/C(=O)O)C(C)(C)CCC1 [ATRA, all-trans-retinoic acid, reference compound]
living cell count (3T3-KLF5 cells; 3T3-KLF5 cells): decrease of the living cell count was observed in a concentration-dependent manner | living cell count (3T3-mock cells): decrease of the living cell count was observed in a concentration-dependent manner | I/M ratio (mean ± S.D.) ([2]; 5 mg/kg orally once daily): 0.64 ± 0.3 | I/M ratio (mean ± S.D.) ([2]; 10 mg/kg orally once daily): 0.63 ± 0.2 | ratio of I/M (intima/media) compared with the control group ([2]; ATRA 5 or 10 mg/kg): no difference was observed

KLF5-dependent PDGF-A promoter activation action under overexpression of RARβ [3]: not affected | KLF5-dependent PDGF-A promoter activation action under overexpression of RARα ([4]; Example 1-1, COS1 cells, 10^−7 to 10^−5 M, FIG. 1): inhibited | concentration from which the action showed concentration dependency ([4]; Example 1-1, COS1 cells, RARα): ≥ 10^−7 M | KLF5-dependent PDGF-A promoter activation under overexpression of RARα ([4]; Example 1-2, COS1 cells, 10^−12 to 10^−5 M, FIG. 2): inhibited | concentration from which the inhibitory action was significantly concentration-dependent ([4]; Example 1-2, COS1 cells, RARα): ≥ 10^−10 M | KLF5-dependent activation of the PDGF-A promoter under overexpression of RARγ ([9]; COS1 cells, FIG. 3): inhibited | inhibitory action compared with ATRA ([9]; RARγ): more potent than that of ATRA
Structure (SMILES): CC(C)=CCC/C(C)=C/CC/C(C)=C/C=C/C(C)=C/C(=O)O [NIK-333, (2E,4E,6E, 10E)-3,7,11,15-Tetramethyl-2,4,6,10,14-hexadecapentanoic acid]
inhibitory action compared with ATRA ([4]; Example 1-2, RARα): more potent than that of all-trans-retinoic acid (ATRA) | action on living cell count compared with ATRA (3T3-KLF5 cells; 3T3-KLF5 cells): more potent than that of ATRA | living cell count (3T3-KLF5 cells; 3T3-KLF5 cells): decrease of the living cell count was observed in a concentration-dependent manner | survival rate of 3T3-KLF5 cells versus 3T3-mock cells (3T3-KLF5 cells; after the addition of NIK-333): the survival rate of the 3T3-KLF5 cells was higher than that of the 3T3-mock cells | action on living cell count compared with ATRA (3T3-mock cells): more potent than that of ATRA | living cell count (3T3-mock cells): decrease of the living cell count was observed in a concentration-dependent manner | recurrence of hepatoma after radical treatment (hepatoma recurrence): significantly inhibited | liver function failure and adverse side effects observed with other retinoids [5]: does not substantially induce | I/M ratio (mean ± S.D.) ([2]; 100 mg/kg orally once daily): 0.38 ± 0.2 | I/M ratio (mean ± S.D.) ([2]; 200 mg/kg orally once daily): 0.09 ± 0.1 | ratio of I/M (intima/media) compared with the control group ([2]; NIK-333 100 or 200 mg/kg): decreased | I/M ratio ([6]; 50 mg/kg orally once a day): 0.87 ± 0.29 | I/M ratio ([6]; 100 mg/kg): 0.75 ± 0.31 | ratio of I/M (intima/media) compared with the control group ([6]; NIK-333 treatment group, Example 3-1): decreased | concentration from which cell growth was inhibited in a concentration dependent manner ([7]; 3T3 cells): ≥ 10^−7 M | cell growth inhibitory action compared with ATRA ([7]; 3T3 cells, FIG. 4): more potent than that of ATRA | cell growth of 3T3 cells (living cell count) ([7]; 10^−7 to 10^−4 M, 24, 36 and 48 hours, FIG. 4): inhibited cell growth in a concentration dependent manner | Body weight [8, 10]: 20.8 ± 0.3 g | Weight of both testes [8, 10]: 0.1465 ± 0.0043 g | Body weight [8, 11]: 21.2 ± 0.3 g | Weight of both testes [8, 11]: 0.1360 ± 0.0026 g | body weight compared with the control group ([8]; 50 or 100 mg/kg, 5 weeks): no difference was observed | testes weight compared with the control group ([8]; 50 or 100 mg/kg, 5 weeks): no difference was observed | visual observation of the testes ([8]; 50 or 100 mg/kg, 5 weeks): no abnormal finding was observed
